This is an account of results in US11020397B2, “Compounds and their use for reducing uric acid levels” (Acquist LLC, priority 2016, dated 2021).

The IC50 is the concentration that inhibits the measured activity by half.

Read-outs that look alike come from different tables or passages of the source. Some results are limits rather than exact numbers.

In the test the target is Xanthine oxidase (Homo sapiens (Human), UniProt P47989). Kind of test: Fluorescence-based xanthine oxidase activity assay. The settings on record: for Xanthine oxidase inhibition, verbal rating: compared to allopurinol. It is filed as biochemical.
Setting [1] is: unit nM, read-out: Xanthine Oxidase IC50.

Sequence of Xanthine oxidase (P47989 whole entry, species assumed): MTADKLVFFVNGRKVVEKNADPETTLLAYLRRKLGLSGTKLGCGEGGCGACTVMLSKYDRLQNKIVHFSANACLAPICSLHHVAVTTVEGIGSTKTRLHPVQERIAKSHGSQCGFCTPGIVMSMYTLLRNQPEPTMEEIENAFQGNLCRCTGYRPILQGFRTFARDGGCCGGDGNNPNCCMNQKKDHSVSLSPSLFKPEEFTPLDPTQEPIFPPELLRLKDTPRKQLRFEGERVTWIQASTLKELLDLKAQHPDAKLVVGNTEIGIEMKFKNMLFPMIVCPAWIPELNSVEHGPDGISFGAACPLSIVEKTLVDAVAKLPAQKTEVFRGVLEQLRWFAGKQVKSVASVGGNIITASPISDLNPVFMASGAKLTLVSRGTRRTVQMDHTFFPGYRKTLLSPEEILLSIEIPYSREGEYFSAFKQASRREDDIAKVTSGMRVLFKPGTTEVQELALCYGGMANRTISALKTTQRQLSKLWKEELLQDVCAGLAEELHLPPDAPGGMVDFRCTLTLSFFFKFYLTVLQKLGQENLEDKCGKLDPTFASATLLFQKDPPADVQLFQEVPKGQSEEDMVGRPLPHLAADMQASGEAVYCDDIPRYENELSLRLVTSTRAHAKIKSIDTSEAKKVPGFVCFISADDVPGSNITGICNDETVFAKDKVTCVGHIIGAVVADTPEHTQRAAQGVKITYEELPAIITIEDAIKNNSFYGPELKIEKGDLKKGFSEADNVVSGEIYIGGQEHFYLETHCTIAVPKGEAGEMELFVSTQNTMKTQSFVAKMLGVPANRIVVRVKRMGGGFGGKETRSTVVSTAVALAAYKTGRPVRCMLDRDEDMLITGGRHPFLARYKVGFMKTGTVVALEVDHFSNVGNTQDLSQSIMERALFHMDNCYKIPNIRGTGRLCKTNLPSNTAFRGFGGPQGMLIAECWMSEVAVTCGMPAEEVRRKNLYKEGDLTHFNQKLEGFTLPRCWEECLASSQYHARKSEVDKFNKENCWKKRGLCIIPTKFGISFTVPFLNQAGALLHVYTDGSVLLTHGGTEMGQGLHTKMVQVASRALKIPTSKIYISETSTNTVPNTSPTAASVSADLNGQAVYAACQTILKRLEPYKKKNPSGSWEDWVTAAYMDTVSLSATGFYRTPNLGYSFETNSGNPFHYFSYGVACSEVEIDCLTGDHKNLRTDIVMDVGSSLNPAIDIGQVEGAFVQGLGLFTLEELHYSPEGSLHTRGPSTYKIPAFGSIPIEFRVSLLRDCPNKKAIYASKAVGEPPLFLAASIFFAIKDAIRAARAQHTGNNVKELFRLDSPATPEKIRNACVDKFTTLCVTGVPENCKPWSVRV

For `CCSc1nc(O)c(C(=O)Nc2ccc(-c3nn[nH]n3)cc2)c(=O)[nH]1` [Formula (IIp), N-(4-(1H-tetrazol-5-yl)phenyl)-2-(ethylthio)-4-hydroxy-6-oxo-1,6-dihydropyrimidine-5-carboxamide], the IC50 worked out at 200 nM and the “Xanthine oxidase inhibition, verbal rating” value (“Xanthine oxidase inhibition” below) is reported as “particularly potent inhibitors of xanthine oxidase compared to allopurinol”.

Regarding `CC(C)Sc1nc(O)c(C(=O)Nc2ccc(-c3c[nH]nn3)cc2)c(=O)[nH]1` [Formula (IIi), N-(4-(1H-1,2,3-triazol-5-yl)phenyl)-4-hydroxy-2-(isopropylthio)-6-oxo-1,6-dihydropyrimidine-5-carboxamide], the “Xanthine oxidase inhibition” value is reported as “particularly potent inhibitors of xanthine oxidase compared to allopurinol”. The IC50 under setting [1] is less than 20 nM.

As for `CCSc1nc(O)c(C(=O)Nc2ccc(-c3c[nH]nn3)cc2)c(=O)[nH]1` [Formula (IIl), N-(4-(1H-1,2,3-triazol-4-yl)phenyl)-2-(ethylthio)-4-hydroxy-6-oxo-1,6-dihydropyrimidine-5-carboxamide], the “Xanthine oxidase inhibition” value was “particularly potent inhibitors of xanthine oxidase compared to allopurinol”. Further, the IC50 under setting [1] is less than 20 nM.

`CC(C)Sc1nc(O)c(C(=O)Nc2ccc(-c3c[nH]nn3)c(F)c2)c(=O)[nH]1` [Formula (IIw), N-(3-Fluoro-4-(1H-1,2,3-triazol-4-yl)phenyl)-4-hydroxy-2-(isopropylthio)-6-oxo-1,6-dihydropyrimidine-5-carboxamide] returned an IC50 of 660 nM.

`CSc1nc(O)c(C(=O)Nc2ncc(-c3c[nH]nn3)cc2C(F)(F)F)c(=O)[nH]1` [Formula (II8), N-(5-(1H-1,2,3-triazol-4-yl)-3-(trifluoromethyl)pyridin-2-yl)-4-hydroxy-2-(methylthio)-6-oxo-1,6-dihydropyrimidine-5-carboxamide]: the IC50 was found to be 60 nM.

In turn, `CSc1nc(O)c(C(=O)Nc2ccc3nc(-c4c[nH]nn4)ccc3c2)c(=O)[nH]1` [Formula (II10), N-(2-(1H-1,2,3-triazol-4-yl)quinolin-6-yl)-4-hydroxy-2-(methylthio)-6-oxo-1,6-dihydropyrimidine-5-carboxamide] had an IC50 of 190 nM.

With `CN(C)CCSc1nc(O)c(C(=O)Nc2ccc(-c3c[nH]nn3)cc2F)c(=O)[nH]1` [Formula (IIbb), 2-((2-(dimethylamino)ethyl)thio)-N-(2-fluoro-4-(1H-1,2,3-triazol-4-yl)phenyl)-4-hydroxy-6-oxo-1,6-dihydropyrimidine-5-carboxamide], half-maximal inhibition (IC50) was put at 206 nM.

Consider `CC(C)Sc1nc(O)c(C(=O)Nc2ccc(-c3c[nH]nn3)cc2C(F)(F)F)c(=O)[nH]1` [Formula (II7), N-(4-(1H-1,2,3-Triazol-5-yl)-2-(trifluoromethyl)phenyl)-4-hydroxy-2-(isopropyl-thio)-6-oxo-1,6-dihydropyrimidine-5-carboxamide], for which the concentration for half-maximal inhibition (IC50) worked out at 70 nM.

Regarding `CSc1nc(O)c(C(=O)Nc2ccc(-c3c[nH]nn3)c(F)c2)c(=O)[nH]1` [Formula (IIr), N-(3-Fluoro-4-(1H-1,2,3-triazol-4-yl)phenyl)-4-hydroxy-2-(methylthio)-6-oxo-1,6-dihydropyrimidine-5-carboxamide], the IC50 came out at 210 nM and the “Xanthine oxidase inhibition” value was “particularly potent inhibitors of xanthine oxidase compared to allopurinol”.

For the compound `O=C(Nc1ccc(-c2c[nH]nn2)cc1)c1c(O)nc(SC(F)(F)F)[nH]c1=O` [Formula (IIj)], the IC50 under setting [1] is greater than 300000 nM.

For the compound `CSc1nc(O)c(C(=O)Nc2ccc(-c3c[nH]nn3)cc2C#N)c(=O)[nH]1` [Formula (II5), N-(2-cyano-4-(1H-1,2,3-triazol-4-yl)phenyl)-4-hydroxy-2-(methylthio)-6-oxo-1,6-dihydropyrimidine-5-carboxamide], the IC50 worked out at 40 nM.

Compound `O=C(Nc1ncc(-c2c[nH]nn2)s1)c1c(O)[nH]c(=O)[nH]c1=O` [Formula (Io), N-(5-(1H-1,2,3-Triazol-4-yl)thiazol-2-yl)-2,4,6-trihydroxypyrimidine-5-carboxamide] came in with an IC50 of 5300 nM.

Consider `O=C(Nc1ccc(-c2c[nH]nn2)cc1)c1c(O)nc(SCC2CC2)[nH]c1=O` [Formula (IIo), N-(4-(1H-1,2,3-triazol-4-yl)phenyl)-2-((cyclopropylmethyl)thio)-4,6-dioxo-1,4,5,6-tetrahydropyrimidine-5-carboxamide], for which 1140 nM corresponded to half-maximal inhibition (IC50).

`CSc1nc(O)c(C(=O)Nc2ccc(-c3c[nH]nn3)c(C(F)(F)F)c2)c(=O)[nH]1` [Formula (II6), N-(4-(1H-1,2,3-Triazol-4-yl)-3-(trifluoromethyl)phenyl)-4-hydroxy-2-(methylthio)-6-oxo-1,6-dihydropyrimidine-5-carboxamide]: the IC50 under setting [1] was greater than 10000 nM.

The compound `CC(C)Sc1nc(O)c(C(=O)Nc2ccc(-c3c[nH]nn3)cc2F)c(=O)[nH]1` [Formula (IIv), N-(2-Fluoro-4-(1H-1,2,3-triazol-4-yl)phenyl)-4-hydroxy-2-(isopropylthio)-6-oxo-1,6-dihydropyrimidine-5-carboxamide] displayed an IC50 of 100 nM.

For the compound `CSc1nc(O)c(C(=O)Nc2ccc(-c3c[nH]nn3)cc2F)c(=O)[nH]1` [Formula (IIs), N-(2-Fluoro-4-(1H-1,2,3-triazol-4-yl)phenyl)-4-hydroxy-2-(methylthio)-6-oxo-1,6-dihydropyrimidine-5-carboxamide], the IC50 was 120 nM and the “Xanthine oxidase inhibition” value was “particularly potent inhibitors of xanthine oxidase compared to allopurinol”.

The compound `CSc1nc(O)c(C(=O)Nc2ccc(-c3c[nH]nn3)cc2OC(F)(F)F)c(=O)[nH]1` [Formula (II3), N-(4-(1H-1,2,3-triazol-4-yl)-2-(trifluoromethoxy)phenyl)-4-hydroxy-2-(methylthio)-6-oxo-1,6-dihydropyrimidine-5-carboxamide] returned an IC50 of 60 nM.

Compound `CSc1nc(O)c(C(=O)Nc2ccc(-c3c[nH]nn3)cc2OC(F)F)c(=O)[nH]1` [Formula (II4), N-(2-(difluoromethoxy)-4-(1H-1,2,3-triazol-4-yl)phenyl)-4-hydroxy-2-(methylthio)-6-oxo-1,6-dihydropyrimidine-5-carboxamide] came in with an IC50 of 60 nM.

In the case of `CSc1nc(O)c(C(=O)Nc2ccc(-c3c[nH]nn3)c(F)c2F)c(=O)[nH]1` [Formula (IIaa), N-(2,3-difluoro-4-(1H-1,2,3-triazol-4-yl)phenyl)-4,6-dihydroxy-2-(methylthio) pyrimidine-5-carboxamide], 103 nM corresponded to half-maximal inhibition (IC50).

In the case of `CSc1nc(O)c(C(=O)Nc2ccc(-c3c[nH]nn3)nc2)c(=O)[nH]1` [Formula (IIii), N-(6-(1H-1,2,3-triazol-4-yl)pyridin-3-yl)-4-hydroxy-2-(methylthio)-6-oxo-1,6-dihydropyrimidine-5-carboxamide], half-maximal inhibition (IC50) required 377 nM and the “Xanthine oxidase inhibition” value is recorded as “particularly potent inhibitors of xanthine oxidase compared to allopurinol”.

As for `CSc1nc(O)c(C(=O)Nc2c(F)cc(-c3c[nH]nn3)cc2F)c(=O)[nH]1` [Formula (IIt), N-(2,6-Difluoro-4-(1H-1,2,3-triazol-4-yl)phenyl)-4-hydroxy-2-(methylthio)-6-oxo-1,6-dihydropyrimidine-5-carboxamide], the IC50 came out at 180 nM and the “Xanthine oxidase inhibition” value is “particularly potent inhibitors of xanthine oxidase compared to allopurinol”.

Consider `CC(C)CSc1nc(O)c(C(=O)Nc2ccc(-c3c[nH]nn3)cc2)c(=O)[nH]1` [Formula (IIq), N-(4-(1H-1,2,3-triazol-4-yl)phenyl)-4-hydroxy-2-(isobutylthio)-6-oxo-1,6-dihydropyrimidine-5-carboxamide], for which 40 nM corresponded to half-maximal inhibition (IC50) and the “Xanthine oxidase inhibition” value is given as “particularly potent inhibitors of xanthine oxidase compared to allopurinol”.
